Experiments:
[1] = test system: Glomerella lagenarium (Colletotrichum lagenarium); assay: Glomerella lagenarium (Colletotrichum lagenarium) / liquid culture (anthracnose); assay type: cell-based; conditions: Colletotrichum orbiculare, growth inhibition photometrically 3-4 days after application, read-out: control of Glomerella lagenarium
Procedure: (§1) Example B3: Glomerella lagenarium (Colletotrichum lagenarium)/Liquid Culture (Anthracnose) Conidia of the fungus from cryogenic storage are directly mixed into nutrient broth (PDB potato dextrose broth). After placing a (DMSO) solution of test compound into a microtiter plate (96-well format), the nutrient broth containing the fungal spores is added. The test plates are incubated at 24° C. and the inhibition of growth is measured photometrically 3-4 days after application.

[2] = test system: Blumeria graminis f. sp. tritici (Erysiphe graminis f. sp. tritici); assay: Blumeria graminis f. sp. tritici / wheat / leaf disc preventative (powdery mildew on wheat); assay type: in vivo; conditions: foliar, wheat leaf segments, inoculated 1 day after application
Procedure: Example B4: Blumeria graminis f. Sp. Tritici (Erysiphe graminis f. Sp. Tritici)/Wheat/Leaf Disc Preventative (Powdery Mildew on Wheat) Wheat leaf segments cv. Kanzler are placed on agar in a multiwell plate (24-well format) and sprayed with the formulated test compound diluted in water. The leaf disks are inoculated by shaking powdery mildew infected plants above the test plates 1 day after application. The inoculated leaf disks are incubated at 20° C. and 60% rh under a light regime of 24 h darkness followed by 12 h light/12 h darkness in a climate chamber and the activity of a compound is assessed as percent disease control compared to untreated when an appropriate level of disease damage appears on untreated check leaf segments (6-8 days after application).

Alternaria solani = Alternaria solani / tomato / leaf disc (early blight); assay type: in vivo; conditions: foliar, tomato leaf disks, sprayed 2 days before inoculation, compared to untreated control
Procedure: Example B1: Alternaria solani/Tomato/Leaf Disc (Early Blight) Tomato leaf disks cv. Baby are placed on agar in multiwell plates (24-well format) and sprayed with the formulated test compound diluted in water. The leaf disks are inoculated with a spore suspension of the fungus 2 days after application. The inoculated leaf disks are incubated at 23° C./21° C.

[3] = test system: Phaeosphaeria nodorum (Septoria nodorum); assay: Phaeosphaeria nodorum (Septoria nodorum) / wheat / leaf disc preventative (glume blotch); assay type: in vivo; conditions: Parastagonospora nodorum, foliar, wheat leaf segments, inoculated 2 days after application
Procedure: Example B8: Phaeosphaeria nodorum (Septoria nodorum)/Wheat/Leaf Disc Preventative (Glume Blotch) Wheat leaf segments cv. Kanzler are placed on agar in a multiwell plate (24-well format) and sprayed with the formulated test compound diluted in water. The leaf disks are inoculated with a spore suspension of the fungus 2 days after application. The inoculated test leaf disks are incubated at 20° C. and 75% rh under a light regime of 12 h light/12 h darkness in a climate cabinet and the activity of a compound is assessed as percent disease control compared to untreated when an appropriate level of disease damage appears in untreated check leaf disks (5-7 days after application).

[4] = test system: Monographella nivalis (Microdochium nivale); assay: Monographella nivalis (Microdochium nivale) / liquid culture (foot rot cereals); assay type: cell-based; conditions: growth inhibition photometrically 4-5 days after application, read-out: control of Monographella nivalis
Procedure: as §1, with “B9: Monographella nivalis (Microdochium nivale)/Liquid” for “B3: Glomerella lagenarium (Colletotrichum lagenarium)/Liquid”, “(Foot Rot Cereals)” for “(Anthracnose)”, “determined” for “measured”, “4-5” for “3-4”

Pyrenophora teres = Pyrenophora teres / barley / leaf disc preventative (net blotch); assay type: in vivo; conditions: foliar, barley leaf segments, inoculated 2 days after application
Procedure: Example B14: Pyrenophora teres/Barley/Leaf Disc Preventative (Net Blotch) Barley leaf segments cv. Hasso are placed on agar in a multiwell plate (24-well format) and sprayed with the formulated test compound diluted in water. The leaf segments are inoculated with a spore suspension of the fungus 2 days after application. The inoculated leaf segments are incubated at 20° C. and 65% rh under a light regime of 12 h light/12 h darkness in a climate cabinet and the activity of a compound is assessed as disease control compared to untreated when an appropriate level of disease damage appears in untreated check leaf segments (5-7 days after application).

[5] = test system: Botryotinia fuckeliana (Botrytis cinerea); assay: Botryotinia fuckeliana (Botrytis cinerea) / liquid culture (gray mould); assay type: cell-based; conditions: growth inhibition photometrically 3-4 days after application, read-out: control of Botryotinia fuckeliana
Procedure: as §1, with “B2: Botryotinia fuckeliana (Botrytis cinerea)/Liquid” for “B3: Glomerella lagenarium (Colletotrichum lagenarium)/Liquid”, “(Gray Mould)” for “(Anthracnose)”, “(Vogels” for “(PDB potato dextrose”, “determined” for “measured”

[6] = test system: Mycosphaerella graminicola (Septoria tritici); assay: Mycosphaerella graminicola (Septoria tritici) / liquid culture (Septoria blotch); assay type: cell-based; conditions: Zymoseptoria tritici, growth inhibition photometrically 4-5 days after application, read-out: control of Mycosphaerella graminicola
Procedure: as §1, with “B16: Mycosphaerella graminicola (Septoria tritici)/Liquid” for “B3: Glomerella lagenarium (Colletotrichum lagenarium)/Liquid”, “(Septoria Blotch)” for “(Anthracnose)”, “determined” for “measured”, “4-5” for “3-4”

[7] = test system: Mycosphaerella arachidis (Cercospora arachidicola); assay: Mycosphaerella arachidis (Cercospora arachidicola) / liquid culture (early leaf spot); assay type: cell-based; conditions: growth inhibition photometrically 4-5 days after application, read-out: control of Mycosphaerella arachidis
Procedure: as §1, with “B10: Mycosphaerella arachidis (Cercospora arachidicola)/Liquid” for “B3: Glomerella lagenarium (Colletotrichum lagenarium)/Liquid”, “(Early Leaf Spot)” for “(Anthracnose)”, “determined” for “measured”, “4-5” for “3-4”

Fusarium culmorum = assay: microbe, parasite or virus in culture; assay type: cell-based; conditions: read-out: control of Fusarium culmorum

Cn1cc(C(C)(CNC(=O)c2cc(-c3ccc(F)cc3F)no2)c2cccc(Cl)n2)cn1 (stereo not shown) [Compound P-4, N-[2-(6-chloro-2-pyridyl)-2-(1-methylpyrazol-4-yl)propyl]-3-(2,4-difluorophenyl)isoxazole-5-carboxamide]
≥ 80%: inhibition of growth at 20 ppm [1] | pest or weed control at 200 ppm [2] | pest or weed control at 200 ppm (Alternaria solani)

Cn1cc(C(C)(CNC(=O)c2nnc(-c3ccc(F)cc3F)s2)c2ccccn2)cn1 (stereo not shown) [Compound P-6, 5-(2,4-difluorophenyl)-N-[2-(1-methylpyrazol-4-yl)-2-(2-pyridyl)propyl]-1,3,4-thiadiazole-2-carboxamide]
≥ 80%: pest or weed control at 200 ppm [3] | inhibition of growth at 20 ppm [4] | inhibition of growth at 20 ppm [1] | pest or weed control at 200 ppm [2] | pest or weed control at 200 ppm (Pyrenophora teres) | inhibition of growth at 20 ppm [5] | inhibition of growth at 20 ppm [6] | pest or weed control at 200 ppm (Alternaria solani)

Cn1cc(C(C)(CNC(=O)c2cc(-c3ccc(F)cc3F)on2)c2ccccn2)cn1 (stereo not shown) [Compound P-11, 5-(2,4-difluorophenyl)-N-[2-(1-methylpyrazol-4-yl)-2-(2-pyridyl)propyl] isoxazole-3-carboxamide]
≥ 80%: pest or weed control at 200 ppm [3] | inhibition of growth at 20 ppm [4] | inhibition of growth at 20 ppm [1] | pest or weed control at 200 ppm [2] | pest or weed control at 200 ppm (Pyrenophora teres) | inhibition of growth at 20 ppm [5] | inhibition of growth at 20 ppm [6] | pest or weed control at 200 ppm (Alternaria solani)

Cn1cc(C(C)(CNC(=O)c2cc(-c3ccc(F)cc3F)on2)c2cncc(Cl)n2)cn1 (stereo not shown) [Compound P-21, N-[2-(6-chloropyrazin-2-yl)-2-(1-methylpyrazol-4-yl)propyl]-5-(2,4-difluorophenyl) isoxazole-3-carboxamide]
≥ 80%: pest or weed control at 200 ppm [2] | pest or weed control at 200 ppm (Pyrenophora teres) | inhibition of growth at 20 ppm [5] | inhibition of growth at 20 ppm [6]

CC(C)C(CNC(=O)c1cc(-c2ccc(F)cc2F)on1)(c1cnn(C)c1)c1cccc(Cl)n1 (stereo not shown) [Compound P-32, N-[2-(6-chloro-2-pyridyl)-3-methyl-2-(1-methylpyrazol-4-yl)butyl]-5-(2,4-difluorophenyl) isoxazole-3-carboxamide]
≥ 80%: pest or weed control at 200 ppm [3] | inhibition of growth at 20 ppm [4] | pest or weed control at 200 ppm (Pyrenophora teres) | inhibition of growth at 20 ppm [5] | inhibition of growth at 20 ppm [6] | pest or weed control at 200 ppm (Alternaria solani)

CN(C)C(=O)c1cccc(C(C)(CNC(=O)c2cc(-c3ccc(F)cc3F)on2)c2cnn(C)c2)n1 (stereo not shown) [Compound P-44, 5-(2,4-difluorophenyl)-N-[2-[6-(dimethylcarbamoyl)-2-pyridyl]-2-(1-methylpyrazol-4-yl)propyl]isoxazole-3-carboxamide]
≥ 80%: pest or weed control at 200 ppm [3] | pest or weed control at 200 ppm (Pyrenophora teres) | pest or weed control at 200 ppm (Alternaria solani)

CC(=O)c1cccc(C(C)(CNC(=O)c2cc(-c3ccc(F)cc3F)on2)c2cnn(C)c2)n1 (stereo not shown) [Compound P-48, N-[2-(6-acetyl-2-pyridyl)-2-(1-methylpyrazol-4-yl)propyl]-5-(2,4-difluorophenyl) isoxazole-3-carboxamide]
≥ 80%: pest or weed control at 200 ppm [3] | inhibition of growth at 20 ppm [4] | inhibition of growth at 20 ppm [1] | pest or weed control at 200 ppm (Pyrenophora teres) | inhibition of growth at 20 ppm [5] | inhibition of growth at 20 ppm [6] | pest or weed control at 200 ppm (Alternaria solani) | inhibition of growth at 20 ppm [7]

CC(=O)Nc1ccc(C(C)(CNC(=O)c2cc(-c3ccc(F)cc3F)on2)c2cnn(C)c2)nc1 (stereo not shown) [Compound P-59, N-[2-(5-acetamido-2-pyridyl)-2-(1-methylpyrazol-4-yl)propyl]-5-(2,4-difluorophenyl) isoxazole-3-carboxamide]
≥ 80%: pest or weed control at 200 ppm [2]

CO/N=C(/C)c1ccc(C(C)(CNC(=O)c2cc(-c3ccc(F)cc3F)on2)c2cnn(C)c2)nc1 (stereo not shown) [Compound P-61, 5-(2,4-difluorophenyl)-N-[2-[5-[(Z)-N-methoxy-C-methyl-carbonimidoyl]-2-pyridyl]-2-(1-methylpyrazol-4-yl)propyl]isoxazole-3-carboxamide]
≥ 80%: pest or weed control at 200 ppm [3] | inhibition of growth at 20 ppm [4] | inhibition of growth at 20 ppm [1] | pest or weed control at 200 ppm (Pyrenophora teres) | inhibition of growth at 20 ppm [6] | pest or weed control at 200 ppm (Alternaria solani) | inhibition of growth at 20 ppm [7]

Cn1cc(C(C)(CNC(=O)c2cc(-c3ccc(F)cc3F)on2)c2ccnc(Cl)n2)cn1 (stereo not shown) [Compound P-64, N-[2-(2-chloropyrimidin-4-yl)-2-(1-methylpyrazol-4-yl)propyl]-5-(2,4-difluorophenyl) isoxazole-3-carboxamide]
≥ 80%: pest or weed control at 200 ppm [3] | inhibition of growth at 20 ppm [4] | inhibition of growth at 20 ppm [1] | pest or weed control at 200 ppm [2] | pest or weed control at 200 ppm (Pyrenophora teres) | inhibition of growth at 20 ppm [5] | inhibition of growth at 20 ppm [6] | pest or weed control at 200 ppm (Alternaria solani)

Cn1cc(C(C)(CNC(=O)c2cc(-c3ccc(F)cc3F)on2)c2ccc(C#N)cn2)cn1 (stereo not shown) [Compound P-75, N-[2-(5-cyano-2-pyridyl)-2-(1-methylpyrazol-4-yl)propyl]-5-(2,4-difluorophenyl) isoxazole-3-carboxamide]
≥ 80%: inhibition of growth at 20 ppm [4] | pest or weed control at 200 ppm (Pyrenophora teres) | inhibition of growth at 20 ppm [6] | pest or weed control at 200 ppm (Alternaria solani)

Cn1cc(C(C)(CNC(=O)c2noc(-c3ccc(F)cc3F)n2)c2cccc(Cl)n2)cn1 (stereo not shown) [Compound P-83, N-[2-(6-chloro-2-pyridyl)-2-(1-methylpyrazol-4-yl)propyl]-5-(2,4-difluorophenyl)-1,2,4-oxadiazole-3-carboxamide]
≥ 80%: pest or weed control at 200 ppm [3] | inhibition of growth at 20 ppm [4] | inhibition of growth at 20 ppm [1] | pest or weed control at 200 ppm [2] | pest or weed control at 200 ppm (Pyrenophora teres) | inhibition of growth at 20 ppm [5] | inhibition of growth at 20 ppm [6] | pest or weed control at 200 ppm (Alternaria solani) | inhibition of growth at 20 ppm (Fusarium culmorum) | inhibition of growth at 20 ppm [7]

CCCCc1nnc(C(=O)NCC(C)(c2cnn(C)c2)c2cccc(Cl)n2)s1 (stereo not shown) [Compound P-108, 5-butyl-N-[2-(6-chloro-2-pyridyl)-2-(1-methylpyrazol-4-yl)propyl]-1,3,4-thiadiazole-2-carboxamide]
≥ 80%: inhibition of growth at 20 ppm [4] | inhibition of growth at 20 ppm [1] | inhibition of growth at 20 ppm [5] | inhibition of growth at 20 ppm [6] | inhibition of growth at 20 ppm (Fusarium culmorum) | inhibition of growth at 20 ppm [7]
